Source: patent US4829086A, “Soft β-adrenergic blocking agents” (priority 1985, dated 1989)
Entries after “also recorded” stand apart in the source; their conditions may differ. Counter-ions that a name gives are not always drawn.

Experiments:
[1] = Hydrolytic rate in 0.01 N aqueous sodium hydroxide, pH 12.0; assay type: physicochemical; conditions: pH 12.0, ionic strength 0.10 M (NaCl), 27.3 ± 0.2° C.
Protocol: Analytical Methods. A high pressure liquid chromatography (HPLC) method was developed for the determination of the rate constants. The chromatographic analysis was performed in a system consisting of Waters Associates Model 600-A Solvent Delivery System, Model U-6K Injector and Model 440 Dual Channel Absorbance Detector operated at 254 and 280 nm. A 30 cm×3.9 mm (internal diameter) reverse phase μBondpack C18 column (Waters Associates), operated at ambient temperature, was used for all separations. When plasma samples were analyzed, the column was protected with a 2.3 cm×3.9 mm (internal diameter) Guard Column (Waters) packed with μBondpack C18/Corasil packing material. The mobile phase used for the separation of 17 and its degradation product, 5, consisted of water, 1-hexane sulfonic acid in acetic acid (B-6 reagent, Waters), 0.1M triethanolamine and methanol (100:1:100:799). […] For the separation of compounds 10-16 and 18 and their degradation product 5, a mobile phase consisting of water, 1-hexane sulfonic acid in acetic acid (B-6 reagent, Waters), 0.1M triethanolamine and methanol (390:1:10:599) was used.
Determination of the Hydrolytic Rate Constants in Aqueous Solutions. A 0.01M phosphate buffer and 0.01N sodium hydroxide solution were prepared from freshly distilled deionized water. This ionic strength was maintained at 0.1M with sodium chloride. The pH of the phosphate buffer was determined at 37.0° C. with a pH meter standardized at this temperature. For determination of the hydrolytic rate constants, a fresh concentrated solution of the ester in methanol was added to the hydrolytic medium previously equilibrated to the desired temperature and mixed thoroughly to result in an initial concentration of about 5×10^-4 mol. liter^-1. All reactions were run under pseudo first order conditions. Samples of 25 μL were injected into the column at various time intervals and the pseudo first order rate constants were determined from disappearance of the compound by linear regression of natural logarithm of the peak height versus time plots. The half-life and standard error of the rate constant were calculated for each run.

[2] = system: heart rate response to isoproterenol (β-adrenergic); assay: Heart rate response to isoproterenol in rats (initial drug screening); assay type: in vivo, male Spraque-Dawley rats; conditions: 6 mg/kg i.p.
Source text: Initial Drug Screening Protocol. Thirty-two male Spraque-Dawley rats (Blue Spruce Farms) initially weighing 300-450 gm were divided into seven different groups, each for a different drug to be tested: 12(n=4), 14(n=4), 17(n=5), 13(n=4) and 18(n=3), corresponding to the designated compounds 12, 14, 17, 13 and 18 (number of animals), respectively. The other two groups were controls (n=8, isoproterenol alone pretreated with carrier) and those treated with a known β-blocker, dl-propranolol (n=3). Ech animal was anesthetized with sodium pentobarbital (45 mg/kg) and the carotid artery was cannulated with PE-50 tubing. The cannula was subcutaneously threaded around the neck and exteriorized dorsally between the shoulder blades. Th cannula was filled with a heparin solution (300 μg/mL) and sealed with a solid 22 gauge stylet. The animals were housed in individual stainless steel cages, and two days were allowed for recovery from the surgery. Food and water were provided ad libitum. On the day of the experiment, the blood pressure and heart rate of each rat were monitored with a pressure transducer (Narco-Bio model P-1000) and the data recorded on a four-channel physiograph (Narco-Bio systems Marck IV). One hour was allowed as an equilibration period before any drugs were administered. All beta blockers were administered intraperitoneally at a dose of 6 mg/kg. Compounds 12 and 14 and dl-proranolol were dissolved in normal saline while compounds 13, 17 and 18 were dissolved in an ethanol: water solution (3:1). Depending on the trial, controls were administered the appropriate carrier. One hour after administration of the blocker, isoproterenol (Isuprel®, Wintrop Laboratories) was administered subcutaneously at a dose of 25 μg/kg. Blood pressures and heart rate also were recorded 3, 5, 10, 15, 20, 30, 45 and 60 minutes after isoproterenol administration. Both control and experimental animals were unrestrained and free moving in their home cage throughout the experiment. […] However, significant differences in the mean heart rate response amoung the 7 groups were observed: *p<0.005;**p<0.025. Comparisons between groups were made by the Newman-Keuls procedure with significance set at the 95% confidence interval. […] All data are shown as mean±standard error of the mean.

[3] = system: heart rate response to isoproterenol (β-adrenergic); assay: Duration of action study, heart rate in rats; assay type: in vivo, male Sprague Dawley rats; conditions: 6 mg/kg i.p.; for resting heart rate prior to isoproterenol: mean ± SEM
Protocol: Duration of Action Studies. An additional 38 male Sprague Dawley rats (Blue Spruce Farms) initially weighing 268 to 290 gm were anesthetized with sodium pentobarbital (45 mg/kg i.p.), and the carotid artery was cannulated as previously described. On the day of experimentation, after a one-hour equilibration period, initial baseline conditions of basal heart rate and mean blood pressures were recorded. The beta blocker (17) was administered intraperitoneally at a dose of 6 mg/kg. The drug was dissolved in an ethanol: water solution (3:1). This carrier was administered in the control rats. Isoproterenol (Isurprel®, Wintrop Laboratories) was then administered (25 μg/kg s.c.), either 15(n=13), 60(n=12) or 90(n=12) minutes after the beta blocker was administered. Blood pressures and heart rates were recorded at 3, 5, 10, 15, 20, 30, 45 and 60 minutes after isoproterenol administration in all three trials. Both control and experimental animals were unrestrained and free moving in their home cages throught the experiment. Heart rates and mean blood pressure were calculated from the data and a one-way ANOVA was determined at each time interval. The results are shown in FIG. 2 for control vehicle and compound 17 at 15(), 60() and 90() minutes prior to isoproterenol administration at time zero. Resting heart rates were similar in all 4 groups prior to administration of isoproterenol; 342±12; 375±14; 372±19 and 385±17 beats/minute, respectively. […] Data are shown as mean±standard error of the mean.

SMILES: CC(C)NCC(O)COc1ccc(CC(=O)OC2CC(C)(C)CC(C)(C)C2)cc1 (centres unmarked) [Compound 17, 3,3,5,5-Tetramethylcyclohexyl 4-(2-hydroxy-3-isopropylamino)propoxyphenylacetate oxalate 3/4 hydrate]
- Observed pseudo first order hydrolytic rate constant k ([1]; 0.01 N NaOH, ± SEM): 1.56 ± 0.04 × 10^-2 min^-1
- half-life ([1]; 0.01 n naoh, pH 12, 0.01 N NaOH, read-out: Half-life t1/2): 44.4 min
- mean heart rate response to isoproterenol, comparison between groups ([2]; 1 hour before isoproterenol 25 μg/kg s.c., Newman-Keuls, first 20 minutes (17) or first 30 minutes (propranolol)): significantly different from both control- and compound 18-treated groups
- control of heart rate 60 minutes after administration ([2]; FIG. 1): effectively control the heart rate
- mean heart rate response to isoproterenol vs groups treated with compound 12 and 18 ([2]; 10 through 45 minutes following isoproterenol): significantly different than the groups treated with compound 12 and 18
- resting heart rate prior to administration of isoproterenol ([2]; mean ± SEM): 372±19 beat/minute
- heart rate response to isoproterenol ([3]; 15 or 60 minutes prior to isoproterenol 25 μg/kg s.c., FIG. 2, hydrate): attentuated heart rate response; also recorded: significant activity on heart rate
- resting heart rate prior to isoproterenol ([3]; 15 minutes prior to isoproterenol): 375±14 beats/minute
- resting heart rate prior to isoproterenol ([3]; 60 minutes prior to isoproterenol): 372±19 beats/minute
- heart rate activity at 90 minutes ([3]; 90 minutes prior to isoproterenol, FIG. 2): disappears at 90 minutes
- resting heart rate prior to isoproterenol ([3]; 90 minutes prior to isoproterenol): 385±17 beats/minute
